Several values for one entry are separate records, joined by “and”; a condition that tells them apart may be missing. Equal values may be shown once. Entries after “also recorded” stand apart in the source; their conditions may differ.

One data set has as its system zebrafish larvae. Kind of data set: Nontargeted analysis of PFAS metabolites in zebrafish larvae (high-resolution MS). Particulars: zebrafish larvae, Figure 5B. As for the experimental part:
(§1) Zebrafish embryos were collected immediately after spawning, within 1 h, and subsequently transferred to 24-well plates with 1mL of facility water ( 0.036g sea salt, 0.15g sodium bicarbonate in 2L of reverse osmosis water). […] Three well replicates on the same plate were conducted for each concentration of individual chemical. […] Seven batches of experiments were performed to test all 74 PFAS. DMSO controls were incorporated in each batch of exposure experiments. Three replicates were performed for each treatment group, and 20 embryos were used for each replicate. […] For daily replenishment, 2.5mL of old exposure medium were replaced with freshly prepared medium every 24 h from 24 to 96 h post fertilization (hpf). Hatched or dead embryo numbers were recorded every 24 hpf, after which dead embryos were discarded from the growth media. Dead embryos or unhatched embryos were not used for PFAS measurement because the metabolism of PFAS might have been impacted. Zebrafish larvae collection occurred at 120 hpf. First, the larvae were anesthetized by cooling the plate in ice water (0–4°C) for ∼20 min . Then 8–15 larvae in each well were transferred into 1.5-mL tubes. Exposure media was carefully removed, and then the larvae were weighed (wet weight) after blotting excess water with a paper towel. […] Samples were stored at −80 °C until further chemical analysis was performed. Survival rate and hatching rate were calculated by summarizing all the documented data from the whole treatment duration. […] The exposure experiment of PFOSA was repeated using the same procedure as described above.
(§2) Each sample was spiked with 2μL of 0.2μg/mL mass-labeled PFAS mixture. Following this, 500μL of dichloromethane/methanol (2:1, vol/vol) was added to each sample for PFAS extraction. Larvae were then homogenized via ultrasonic probe, followed by 30 min of shaking and 30 min of sonication. Each sample was centrifuged at 14,000×g for 5 min, after which the supernatant was transferred to new tubes. Extraction was repeated once and the two supernatants were combined, evaporated under nitrogen flow, and reconstituted in 200μL of methanol for MS analysis.
(§3) Three microliters of each zebrafish extract was applied to a C18 column ( 1.5μm; 2.1mm×50mm; Thermo Scientific) and analyzed using a Vanquish ultra-HPLC system (Thermo Fisher Scientific) coupled to a Q Exactive high-resolution mass spectrometer (Thermo Fisher Scientific). The sampler and column compartments were maintained at 4°C and 40°C, respectively. The aqueous mobile phase solution (A) consisted of water, whereas the organic mobile phase solution (B) consisted of acetonitrile. […] MS data was acquired in full scan mode (100–1000 m/z, 70,000 mass resolution, 3×10^6 maximum ions collected per 100 ms), and tandem MS (MS/MS) data was recorded by all-ion fragmentation (AIF) mode. Negative and positive ion modes were carried out simultaneously at a 10-min method duration. […] An overview of the analyses conducted on the various PFAS is available in Table S2.
Nontargeted data analysis was accomplished with R scripts that are available on Github (https://github.com/huiUofT/PFASmetabolite). […] The peak features were matched across samples with a mass tolerance of 2.5 ppm and a RT window of 20 s, after RT adjustment. The ratio of abundances of each feature in treatment groups relative to the control group (DMSO) was calculated. The p -values of the difference between two groups were determined by student’s t -tests.
In the case of `OCCC(F)(F)C(F)(F)C(F)(F)C(F)(F)C(F)(F)C(F)(F)F` [compound 70, 6:2 Fluorotelomer alcohol], the “Profile of metabolites (%): Alcohol” value worked out at 0.00%.

The data set is the same for the next values; noted with them: zebrafish larvae, single replicates, Figure 5A.
Take `OCCC(F)(F)C(F)(F)C(F)(F)C(F)(F)C(F)(F)C(F)(F)F` [compound 70, 6:2 Fluorotelomer alcohol]: the “Peak intensity: Alcohol (parent FTOH)” value was determined as 0.

The next data set has as its system zebrafish embryos.
Assay: not given
The note with it: 5μM through 120 hpf, malformation rate.
`CNS(=O)(=O)C(F)(F)C(F)(F)C(F)(F)C(F)(F)C(F)(F)C(F)(F)C(F)(F)C(F)(F)F` [compound 16, N-Methylperfluorooctanesulfonamide]: the “pericardial oedemata, Mean” value came to 0.00%; the “spinal curvature, Mean” value is on record as 0.00%; the “tail dysplasia, Mean” value is recorded as 0.00%.

Regarding `NS(=O)(=O)C(F)(F)C(F)(F)C(F)(F)C(F)(F)C(F)(F)C(F)(F)C(F)(F)C(F)(F)F` [compound 60, Perfluorooctanesulfonamide], the “pericardial oedemata, Mean” value was 0.00%; the “spinal curvature, Mean” value was 0.00%; the “tail dysplasia, Mean” value worked out at 0.00%.

`OCCC(F)(F)C(F)(F)C(F)(F)C(F)(F)C(F)(F)C(F)(F)F` [compound 70, 6:2 Fluorotelomer alcohol]: the “pericardial oedemata, Mean” value is listed as 0.00%; the “spinal curvature, Mean” value was found to be 0.00%; the “tail dysplasia, Mean” value is 0.00%.

Take `O=S(=O)(O)C(F)(F)C(F)(F)C(F)(F)C(F)(F)F` [compound 73, Perfluorobutanesulfonic acid]: the “pericardial oedemata, Mean” value turned out to be 0.00%; the “spinal curvature, Mean” value came to 1.11%; the “tail dysplasia, Mean” value came to 0.00%.

Still in this data set, the particulars now being: 5μM, 5 d.
Take `CNS(=O)(=O)C(F)(F)C(F)(F)C(F)(F)C(F)(F)C(F)(F)C(F)(F)C(F)(F)C(F)(F)F` [compound 16, N-Methylperfluorooctanesulfonamide]: the “Lethal effects on zebrafish larvae” value is on record as “strongest lethal effects”.

`NS(=O)(=O)C(F)(F)C(F)(F)C(F)(F)C(F)(F)C(F)(F)C(F)(F)C(F)(F)C(F)(F)F` [compound 60, Perfluorooctanesulfonamide]: the “Lethal effects on zebrafish larvae” value was “strongest lethal effects”.

The same data set, now with this note: 5μM, 5 d; listed as PFOSA.
Regarding `NS(=O)(=O)C(F)(F)C(F)(F)C(F)(F)C(F)(F)C(F)(F)C(F)(F)C(F)(F)C(F)(F)F` [compound 60, Perfluorooctanesulfonamide], the “Lethal effects on zebrafish larvae” value is “no zebrafish larvae from the 5-μM group survived; also recorded: All zebrafish larvae were dead”.

The data set is the same for the next values; noted with them: 5 µM, exposure through 120 hpf.
As for `NS(=O)(=O)C(F)(F)C(F)(F)C(F)(F)C(F)(F)C(F)(F)C(F)(F)C(F)(F)C(F)(F)F` [compound 60, Perfluorooctanesulfonamide], the “Mortality (%)” value is given as 100%.

As for `OCCC(F)(F)C(F)(F)C(F)(F)C(F)(F)C(F)(F)C(F)(F)F` [compound 70, 6:2 Fluorotelomer alcohol], the “Mortality (%)” value turned out to be 0%.

For `O=S(=O)(O)C(F)(F)C(F)(F)C(F)(F)C(F)(F)F` [compound 73, Perfluorobutanesulfonic acid], the “Mortality (%)” value was found to be 5.6%.

Still in this data set, the particulars now being: zebrafish (Danio rerio), in vivo.
As for `O=C(/C=C(\O)C(F)(F)F)C(F)(F)F` [compound 61, 3H-Perfluoro-4-hydroxy-3-penten-2-one], the “Mortality (%)” value came out at 4.4; the “pericardial oedemata, Mean” value amounted to 0.00%; the “spinal curvature, Mean” value is listed as 0.00%; the “tail dysplasia, Mean” value is 0.00%.

The test system of the next data set is liver fatty acid binding protein (L-FABP).
Assay: not given
More on the design: method as in Yang et al. 2020. Particulars: ref Yang et al. 2020; cited from earlier work.
As for `CNS(=O)(=O)C(F)(F)C(F)(F)C(F)(F)C(F)(F)C(F)(F)C(F)(F)C(F)(F)C(F)(F)F` [compound 16, N-Methylperfluorooctanesulfonamide], the L-FABP ligand result was “not identified as L-FABP ligands”.

Staying with this data set, now noted: ref Yang et al. 2020; read-out: Kd (μM), L-FABP binding affinity; cited from earlier work.
For orientation: Kd means a measure of binding affinity in units of concentration. Regarding `NS(=O)(=O)C(F)(F)C(F)(F)C(F)(F)C(F)(F)C(F)(F)C(F)(F)C(F)(F)C(F)(F)F` [compound 60, Perfluorooctanesulfonamide], the Kd was 5.87 µM.

`O=C(/C=C(\O)C(F)(F)F)C(F)(F)F` [compound 61, 3H-Perfluoro-4-hydroxy-3-penten-2-one]: the Kd was 135 µM.

For `O=S(=O)(O)C(F)(F)C(F)(F)C(F)(F)C(F)(F)F` [compound 73, Perfluorobutanesulfonic acid], the Kd is 116 µM.

Another data set has as its system zebrafish larvae. Put plainly: Bioconcentration factors (BCF) of PFAS in zebrafish larvae. Particulars: zebrafish larvae, 0.5 µM exposure, 120 hpf, three replicates. The method, then:
as §1, §2, §3
GraphPad Prism (version 7.0.4; GraphPad Software) and R studio (version 1.1.456; R Studio Inc.) software was used, and an ANOVA with Dunnett tests was employed to evaluate the statistical significance of the percentage hatched and mortality rate. Exponential regressions were used to determine the relationships between bioconcentration factor (BCF) and binding affinities ( Kd ) to L-FABP.
For `CNS(=O)(=O)C(F)(F)C(F)(F)C(F)(F)C(F)(F)C(F)(F)C(F)(F)C(F)(F)C(F)(F)F` [compound 16, N-Methylperfluorooctanesulfonamide], the “BCF 0.5µM” value is recorded as 292.232 L/kg.

Turning to `NS(=O)(=O)C(F)(F)C(F)(F)C(F)(F)C(F)(F)C(F)(F)C(F)(F)C(F)(F)C(F)(F)F` [compound 60, Perfluorooctanesulfonamide], the “BCF 0.5µM” value is 501 ± 19 L/kg and 501.032 L/kg.

Take `O=S(=O)(O)C(F)(F)C(F)(F)C(F)(F)C(F)(F)F` [compound 73, Perfluorobutanesulfonic acid]: the “BCF 0.5µM” value came out at 2.903 L/kg.

Staying with this data set, now noted: zebrafish larvae, 5 µM exposure, 120 hpf, three replicates.
Take `CNS(=O)(=O)C(F)(F)C(F)(F)C(F)(F)C(F)(F)C(F)(F)C(F)(F)C(F)(F)C(F)(F)F` [compound 16, N-Methylperfluorooctanesulfonamide]: the “BCF 5µM” value was 89 ± 9.4 L/kg.

Consider `O=C(/C=C(\O)C(F)(F)F)C(F)(F)F` [compound 61, 3H-Perfluoro-4-hydroxy-3-penten-2-one], for which the “BCF 5µM” value was 7.7 ± 2.3 L/kg.

Turning to `O=S(=O)(O)C(F)(F)C(F)(F)C(F)(F)C(F)(F)F` [compound 73, Perfluorobutanesulfonic acid], the “BCF 5µM” value turned out to be 2.8 ± 0.47 L/kg.

In a further data set the target is T1, recombinant human liver carboxylesterase 1 (hCES1) (Homo sapiens, UniProt P23141).
T1 construct: purchased Sigma Aldrich
T1 sequence (P23141 18-567): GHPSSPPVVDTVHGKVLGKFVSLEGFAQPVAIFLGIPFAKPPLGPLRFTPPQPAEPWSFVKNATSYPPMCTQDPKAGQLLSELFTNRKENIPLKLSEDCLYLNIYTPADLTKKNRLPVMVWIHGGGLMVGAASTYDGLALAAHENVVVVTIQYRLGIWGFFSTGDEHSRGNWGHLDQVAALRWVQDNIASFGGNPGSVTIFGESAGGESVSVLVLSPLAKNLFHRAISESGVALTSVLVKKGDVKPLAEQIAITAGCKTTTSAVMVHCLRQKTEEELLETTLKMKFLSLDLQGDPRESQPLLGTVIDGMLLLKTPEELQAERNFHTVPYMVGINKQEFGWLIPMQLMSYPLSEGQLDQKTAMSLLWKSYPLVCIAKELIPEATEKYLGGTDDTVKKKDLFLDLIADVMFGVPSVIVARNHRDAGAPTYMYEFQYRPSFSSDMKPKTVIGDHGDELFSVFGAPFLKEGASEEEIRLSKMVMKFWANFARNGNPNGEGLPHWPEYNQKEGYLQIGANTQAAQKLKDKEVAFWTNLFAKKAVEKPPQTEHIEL
Put plainly: Hydrolysis of PFAS by recombinant hCES1. The format is in vitro ADME. Particulars: 10 μM PFAS, 100 μg/L hCES1, phosphate buffer 37 °C 1 hour, single replicates; axis %Control. As for the experimental part: Because recombinant zebrafish CES is not available, we decided to use hCES1 to evaluate the structure-related hydrolysis of PFAS. […] In vitro enzymatic activity experiments were carried out for 1 h in 1.5-mL tubes with 100μL phosphate buffer ( 137 mM sodium chloride, 10 mM phosphate buffer, 2.7 mM potassium chloride; pH 7.4) at 37°C with shaking. Reaction mixtures contained different concentrations of PFAS (1, 10, and 50μM ) and 100μg/L hCES1. […] To stop the hydrolysis reaction, four times the volume of ice-cold methanol was added. The hCES1 protein was precipitated out by centrifugation ( 14,000×g , 10 min). The supernatant was transferred to a new tube and analyzed via MS for the analysis of parent compounds and suspected metabolites (i.e., carboxylates).
Regarding `CNS(=O)(=O)C(F)(F)C(F)(F)C(F)(F)C(F)(F)C(F)(F)C(F)(F)C(F)(F)C(F)(F)F` [compound 16, N-Methylperfluorooctanesulfonamide], the “Parent PFAS, hCES1 (%)” value was 89.36% and 92.00% and 92.59%.

`NS(=O)(=O)C(F)(F)C(F)(F)C(F)(F)C(F)(F)C(F)(F)C(F)(F)C(F)(F)C(F)(F)F` [compound 60, Perfluorooctanesulfonamide]: the “Parent PFAS, hCES1 (%)” value is 83.48% and 89.94% and 97.43%.

The data set is the same for the next values; noted with them: 10 μM PFAS, without hCES1, phosphate buffer 37 °C 1 hour, single replicates.
Consider `CNS(=O)(=O)C(F)(F)C(F)(F)C(F)(F)C(F)(F)C(F)(F)C(F)(F)C(F)(F)C(F)(F)F` [compound 16, N-Methylperfluorooctanesulfonamide], for which the “Parent PFAS, Control (%)” value is 93.34% and 78.46% and 128.20%.

`NS(=O)(=O)C(F)(F)C(F)(F)C(F)(F)C(F)(F)C(F)(F)C(F)(F)C(F)(F)C(F)(F)F` [compound 60, Perfluorooctanesulfonamide]: the “Parent PFAS, Control (%)” value is 81.21% and 101.71% and 117.08%.

The values are drawn from PMC8294803, “A Roadmap to the Structure-Related Metabolism Pathways of Per- and Polyfluoroalkyl Substances in the Early Life Stages of Zebrafish (Danio rerio)” (Environmental Health Perspectives, 2021).
